In patent US8957087B2, “Heterocyclic substituted acardite derivate and application thereof” (Jiangsu Provincial Institute of Materia Medica Co., Ltd., priority 2009, dated 2015):

How the values were obtained:
[1] = tested on: human liver cancer cell bel-7402 transplantation tumor; type: in vivo; details: BALB/cA nude mice; 60 mg/kg, 6 times every week for 3 weeks; Sorafenib oral 60 mg/kg
Protocol: 10. Tumor inhibition rate of tested compounds on human liver cancer cell bel-7402 transplantation tumor model in nude mice
(§1) [Test animals] female BALB/cA nude mice, 35-40 days old, with weight of 18-22g. There were 12 mice in the negative conrol group and 6 mice in the treatment group.
(§2) The dosage of the compound was 60 mg/kg, 6 times every week for 3 weeks. […] Equal amount of normal saline was administrated in the negative control group. Observe for one week after administration.

[2] = tested on: Human colon cancer HT-29 transplantable tumor; test: Human colon cancer HT-29 transplantable tumor in nude mice; details: HT-29 in nude mice, 60 mg/kg ig 9 times
Protocol: Experimental therapeutic action of the compound in the present invention on Human colon cancer HT-29 transplantable tumor in nude mice.
Take eugenic tumor tissues and cut into about 1.5 mm^3, and then incoculate subcutaneously at the right armpit of nude mice under the sterile conditions. The diameter of the transplantable tumor in nude mice was determined with a vernier caliper, and the animals were divided into groups after the tumors were grown to 100-300 mm^3. Using the method of measuring the tumor diameter, dynamically observe the antitumor effects of tested materials. The diameter of the tumor was determined three times every week and the mouse weight was weighed at the same time. […] The solvent was intragastrically administrated as the control for continuous 9 times. Equal amount of control was administrated in the negative control group.
Tumor volume (TV) is calculated as: TV=½×a×b^2, wherein a and b respectively represent length and width.
Relative tumor volume (RTV) is calculated as: RTV=TVt/TV0, wherein TV0 is the tumor volume when administrated according to different cages and TVt is the tumor volume measured each time.
Relative tumor reproduction rate T/C (%) is calculated as follows:
TRTV: RTV in the treatment group; CRTV: RTV in the negative control group.
The test results used relative tumor reproduction rate T/C (%) as evaluating indicator of anti-tumor activity.

[3] = tested on: human umbilical vein endothelial cell HUVEC; test: Growth of human umbilical vein endothelial cell HUVEC by CCK8 method; type: cell-based; details: Final concentration 1 x 1.0*10^(−5) mol/L
Source text: 7. Effects of tested compounds on the growth of human umbilical vein endothelial cell HUVEC cell by CCK8 method
[Test materials] CCK8, human umbilical vein endothelial cell HUVEC cell, 1640 medium containing 10% FBS
(§3) [Tested compound] Compounds 1-38 to be tested
(§4) [Positive control medicine] Sorafenib, compounds A′, B′, C′ with no substituent or only amino formyl in A ring
(§5) Relative OD value of conrol well=OD value of control well−OD value of blank well
(§6) Relative OD value of drug well=OD value of drug well−OD value of blank well

mice S180 sarcoma = test: Experimental therapeutic action on S180 sarcoma mice; details: mice S180 sarcoma, 60 mg/kg orally for 9 days
lung cancer cell A549 = test: Effects on the adhesive ability of lung cancer cell A549; type: cell-based, human; details: Final concentration 1 x 1.0*10^(−5) mol/L
Protocol: 6. Effects of tested compounds on the adhesive ability of lung cancer cell A549
[Test materials] gelatin, CCK8, poly-lysine (PLL), A549 cell stains, 1640 medium containing 10% FBS
as §3, §4
(§7) The inhibition rate is calculated as follows: […]
Dosing dosing cells without cell group (gelatin adhesive OD/PLL adhesion OD)−Dosing cell group (gelatin adhesive OD/PLL adhesion OD value)
Dosing dosing cells without cell group (gelatin adhesive OD/PLL adhesion OD value)

[4] = tested on: human lung cancer cell strain A549; test: MTT assay, inhibition of growth of human lung cancer cell strain A549; type: cell-based
Protocol: 4. Using 3-(4,5-dimethylthiazol-2-yl)-2,5-diphenyl tetrazolium bromide assay (MTT) to detect the inhibition effects on the growth of human lung cancer cell strain A549
[Test materials] MTT working solution, F12 medium containing 10% FBS, continuous injectors
(§8) [Tested compound] Compounds 1-38
as §4
The inhibition rate is calculated as follows:
as §5, §6

[5] = tested on: human high-metastic lung cancer cell 95D; test: Inhibition of human high-metastic lung cancer cell 95D migration (Boyden Chamber Transwell); type: cell-based; details: Final concentration 1 x 1.0*10^(−5) mol/L
Protocol: 5 Inhibition effects of compounds on human high-metastic lung cancer cell 95D migration
[Test materials] Boyden Chamber Transwell chamber (with pore size of 8 μm), human high-metastic lung cancer cell 95D cell strain, 1640 medium containing 10% FBS, 1640 medium containing no serum
as §8, §4, §7

Raf-1(truncated) = test: Raf-1 inhibitor screening by chemoluminescence method; type: biochemical; details: Final concentration 1 x 1.0*10^−5 mol/ml
Source text: 1. Inhibitory activity of the compound of the present invention on raf kinase
Raf-1 inhibitor screening by chemoluminescence method
Westernblot electrophoresis apparatus Rotaryshaker
Raf-1(truncated), Magnesium/ATP Cocktail, MEK1 unactive

[6] = tested on: human umbilical vein endothelial cell HUVEC; test: Lumen formation ability of HUVEC (Matrigel method); type: cell-based; details: Final concentration 1 x 1.0*10^(−5) mol/L
Source text: 8. Inhibition effects of compounds on the lumen formation ability of human umbilical vein endothelial cell HUVEC
[Experimental principles] The human umbilical vein endothelial cells have ability of spontaneously forming blood lumen on Matrigel, which can be used to simulate the process of angiogenesis in vivo. We used Matrigel method to investigate the effects of the compound on the lumen formation ability of human umbilical vein endothelial cell HUVEC.
[Test materials] HUVEC (taking generation 3 to 5 cells for experiments after obtained from primary separation and cultured at 37 under the conditions of 5% CO2), Matrigel, cell culture medium M199.
as §8, §4, §7

[7] = tested on: renal carcinoma cell line GCR-1 transplanted tumor; type: in vivo, BALB/cA nude mice; details: BALB/cA nude mice; 60 mg/kg, 6 times every week for 3 weeks; Sorafenib oral 60 mg/kg
Protocol: 11. Tumor inhibition rate of medicines on renal carcinoma cell line GCR-1 transplanted tumor model in nude mice
as §1
[Test method] […] The dosage of the medicine was 60 mg/kg, 6 times every week for 3 weeks. […] Equal amount of normal saline was administrated in the negative control group. Observe for one week after administration.

[8] = tested on: human lung cancer A549 transplantation tumor; type: in vivo; details: BALB/cA nude mice; 60 mg/kg, 6 times every week for 3 weeks; Sorafenib oral 60 mg/kg
Protocol: 9. Tumor inhibition rate of tested compounds on human lung cancer A549 cell transplantation model in nude mice
as §1, §2

| SMILES | Relative tumor reproduction rate T/C (%) on human liver cancer cell bel-7402 transplantation tumor model in nude mice [1] | Relative tumor reproduction rate T/C (%) [2] | Inhibition rate, growth of HUVEC cell [3] | Tumor growth inhibition rate (%) (mice S180 sarcoma) | Inhibition rate, adhesion ability of human lung cancer cell A549 (lung cancer cell A549) | Inhibition rate, growth of human lung cancer cell A549 [4] | Inhibition rate, 95D cell strain migration [5] | Inhibition rate % on raf kinase (Raf-1(truncated)) | Inhibition rate, lumen formation ability of HUVEC [6] | Relative tumor reproduction rate T/C (%) on human renal carcinoma GCR-1 cell transplanted tumor model in nude mice [7] | Relative tumor reproduction rate T/C (%) on human lung cancer A549 transplantation tumor in nude mice [8] |
| --- | --- | --- | --- | --- | --- | --- | --- | --- | --- | --- | --- |
| O=C(Nc1ccc(Oc2ncnc3cc(F)ccc23)cc1)Nc1ccc(Cl)c(C(F)(F)F)c1 [Compound 19, N-(4-chloro-3-(trifluoromethyl)phenyl)-N′-(4-(4-(7 fluoroquinazolinyl)oxy)phenyl)urea] | 16.3% | 39.4% | 5.23% | 50.8% | 90.28% | 91.23% | 90.21% | 93.5% | 89.22% | 13.2% | 7.7% |
| O=C(Nc1ccc(Oc2ncnc3cc(F)ccc23)cc1)Nc1ccc(F)c(C(F)(F)F)c1 [Compound 20, N-(4-fluoro-3-(trifluoromethyl)phenyl)-N′-(4-(4-(7 fluoroquinazolinyl)oxy)phenyl)urea] | 17.2% | 40.1% | 7.32% | 54.6% | 95.31% | 88.32% | 89.12% | 87.7% | 88.54% | 13.1% | 12.1% |
| O=C(Nc1ccc(Oc2ncnc3cc(F)ccc23)cc1)Nc1ccc(Br)c(C(F)(F)F)c1 [Compound 21, N-(4-bromo-3-(trifluoromethyl)phenyl)-N′-(4-(4-(7 fluoroquinazolinyl)oxy)phenyl)urea] | 16.4% | 38.7% | 11.21% | 59.7% | 90.22% | 89.21% | 88.76% | 98.9% | 89.47% | 7.8% | 13.7% |
| COc1ncncc1Oc1ccc(NC(=O)Nc2ccc(Cl)c(C(F)(F)F)c2)cc1 [Compound 22, N-(4-chloro-3-(trifluoromethyl)phenyl)-N′-(4-(5-(4-methoxypyrimidinyl)oxy)phenyl)urea] | 15.3% | 41.2% | 12.49% | 52.1% | 72.44% | 82.49% | 88.77% | 88.1% | 86.72% | 8.1% | 15.3% |
| COc1ncncc1Oc1ccc(NC(=O)Nc2ccc(F)c(C(F)(F)F)c2)cc1 [Compound 23, N-(4-fluoro-3-(trifluoromethyl)phenyl)-N′-(4-(5-(4-methoxypyrimidinyl)oxy)phenyl)urea] | 17.7% | 39.7% | 17.41% | 51.5% | 77.56% | 55.41% | 85.53% | 89.9% | 97.56% | 9.1% | 17.1% |
| COc1ncncc1Oc1ccc(NC(=O)Nc2ccc(Br)c(C(F)(F)F)c2)cc1 [Compound 24, N-(4-bromo-3-(trifluoromethyl)phenyl)-N′-(4-(5-(4-methoxypyrimidinyl)oxy)phenyl)urea] | 16.8% | 37.8% | 13.32% | 54.6% | 73.30% | 86.32% | 85.48% | 91.3% | 93.78% | 10.8% | 15.6% |
| Nc1ccc2c(Oc3ccc(NC(=O)Nc4ccc(Cl)c(C(F)(F)F)c4)cc3)cncc2c1 [Compound 25, N-(4-chloro-3-(trifluoromethyl)phenyl)-N′-(4-(4-(7-amino-isoquinolyl)oxy)phenyl)urea] | 29.1% | 79.5% | 23.26% | 55.8% | 63.51% | 63.26% | 59.76% | 11.5% | 79.79% | 31.2% | 39.4% |
| Nc1ccc2c(Oc3ccc(NC(=O)Nc4ccc(F)c(C(F)(F)F)c4)cc3)cncc2c1 [Compound 26, N-(4-fluoro-3-(trifluoromethyl)phenyl)-N′-(4-(4-(7-amino-isoquinolyl)oxy)phenyl)urea] | 36.1% | 41.1% | 32.50% | 7.6% | 68.57% | 55.50% | 60.52% | 15.3% | 70.53% | 24.2% | 33.1% |
